Measured values from patent US5569655A, “Substituted heterocyclylisoquinolinium salts and compositions and method of use thereof” (Sterling Winthrop Inc., priority 1994, dated 1996).

Columns and labels:
[1] = biological target: PCP recognition sites (PCP receptor); assay: [3H]TCP radioreceptor assay (binding to PCP recognition sites); set-up: species or system rat (male Sprague-Dawley; details: rat whole brain membranes, approx. 1 nM [3H]TCP; mean of at least two determinations
Protocol: [^3 H]TCP Radioreceptor Assay
[^3 H]TCP binding to PCP recognition sites was performed as described by Vignon et al. Brain Research 1983, 280, 194-197. Male Sprague-Dawley rats were sacrificed by decapitation, and whole brains were homogenized in 10 volumes (wt/vol) of cold Tris-HCl buffer (50 mM, pH 7.7) using a Brinkmann Polytron (setting 6, 30 sec). The homogenate was centrifuged at 40,000×g for 10 min at 4° C. The supernatant was decanted, and the homogenization and centrifugation steps were repeated twice as described above. Following this, the pellet was resuspended in Tris-HCl (5 mM, pH 7.7) at a tissue concentration of 0.5-0.75 g/ml, and one ml aliquots were frozen at -70° C. until use. The binding characteristics for PCP recognition sites were not altered by the freezing of membrane suspensions.
On the day of the assay, membrane aliquots were thawed, resuspended in fresh 5 mM Tris-HCl buffer at a tissue concentration of 1 mg/ml, and stored on ice until use. Each assay tube contained 100 μl of [^3 H]TCP at a final concentration of approximately 1 nM, 100 μl of various concentrations of the compounds of interest, 500 μl of the tissue suspension and 300 μl of buffer to a final assay volume of 1 ml and a final protein concentration of 0.5 mg/tube. Non-specific binding was defined by addition of a final concentration of 100 μM PCP to blank tubes. All tubes were incubated at room temperature for 25 min before termination of the reaction by rapid filtration over Whatman GF/B glass fiber filters that had been presoaked in a solution of 0.5% polyethylenimine for at least 1 hr prior to use. Filters were washed with three 4 ml volumes of cold Tris buffer. Following addition of scintillation cocktail, the amount of bound radioactivity was determined by liquid scintillation spectrometry using a Beckman LS 5000TA liquid scintillation counter with an efficiency for tritium of approximately 55%. Inhibition constants (Ki values) were calculated using the EBDA/LIGAND program (McPherson, J. Pharmacol. Meth. 1985, 14, 213-228), purchased from Elsevier/Biosoft, Inc. The results are reported as Ki values (in nM) which are expressed as the mean of at least two separate determinations, or as a percent (%) inhibition of binding at 10 μM.
(§1) Table 4 summarizes the results obtained from the testing of representative compounds of the invention in the [^3 H]TCP radioreceptor assay as well as in the antagonism of NMDA-induced neurotoxicity in cultured neurons.

[2] = tested on: NMDA-induced neurotoxicity in cultured cortical neurons; assay: Antagonism of NMDA-induced neurotoxicity in cultured neurons; format: cell-based, mouse (Swiss-Webster); details: Mus musculus, Cortical neurone, 500 μM NMDA for 30 minutes; LDH activity after 24 hours
Protocol: Antagonism of NMDA-induced Neurotoxicity in Cultured Neurons
Preparation of cultured cortical neurons
Pregnant, Swiss-Webster mice were obtained from Taconic Farms (Germantown, N.Y.) and sacrificed 16 days post conception. Fetuses were removed and placed in a sterile dish containing Hank's balanced salt solution (HBSS), pH 7.4. Brain cortices were dissected, meninges were removed, the tissue was minced and placed into a solution of HBSS containing 0.25% (w/v) trypsin at 37° C. for 15 minutes. Tissue was then triturated with a sterile pasteur pipet, diluted with minimal essential media (Gibco 330-1430), pH 7.4, supplemented with 10% horse serum, 10% fetal calf serum, 2 mM 1-glutamine, 21 mM d-glucose, 2.2 g/L sodium bicarbonate, 1000 U/ml penicillin, and 1,000 μg/ml streptomycin. Cells were plated onto Falcon primaria 96 well plates at a final density of 50,000 cells/well and incubated at 37° C. in the presence of 5% (v/v) carbon dioxide. After 5 days, plating media was replaced with maintenance media containing minimal essential media (Gibco 330-1430), pH 7.4, supplemented with 10% horse serum, 10% 1-glutamine, 21 mM D-glucose, 2.2 g/l sodium bicarbonate,1,000 U/ml penicillin, 1,000 μg/ml streptomycin, and 10 μM cytosine arabinoside. On days 7 and 10, media was replaced with maintenance media as above lacking the cytosine arabinoside. Experiments were conducted on day 13.
Neuroprotection Assessment
Day 13 cultured cortical neurons were washed twice with minimal essential media, pH 7.4 and then exposed for 30 minutes to 500 μM N-methyl-D-aspartic acid (NMDA) with or without varying concentrations of test agents. […] MK-801 and test agents were prepared in minimal essential media supplemented with 21 mM d-glucose and 2.2 g/L sodium bicarbonate (MEM). After 30 minutes, media was replaced with MEM alone. Exposure of neurons to test agents was limited to the NMDA treatment period. Twenty-four hours after removal of NMDA, an aliquot of media from each well was removed for assessment of cell injury by determining lactate dehydrogenase (LDH) activity by the method of Wroblewski and LaDue Proc. Soc. Exp. Biol. Med. 1955, 90, 210-213. The results are expressed as an IC50 (in nM) value (concentration causing 50% inhibition) for the antagonism of NMDA-induced neurotoxicity.
as §1

| SMILES | Ki [1] [nM] | IC50 [2] [nM] |
| --- | --- | --- |
| Cn1cc[n+]2c1C1c3ccccc3C2CC1(c1ccoc1)c1ccoc1 (stereo not drawn) [13(b), 11,11-di(3-furyl)-5,10-ethano-5,10-dihydro-1-methylimidazo[1,2-b]isoquinolin-4-ium chloride] | 2.9 | 257 |
| Cc1csc2[n+]1C1CC(c3ccoc3)(c3ccoc3)C2c2ccccc21 (stereo not drawn) [15(F), 11,11-di(3-furyl)-5,10-ethano-5,10-dihydro-3-methylthiazolo[3,2-b]isoquinolinium chloride] | 20 | 300 |
| Cc1c[n+]2c(s1)C1c3ccccc3C2CC1(c1ccoc1)c1ccoc1 (stereo not drawn) [16(E), 11,11-di(3-furyl)-5,10-ethano-5,10-dihydro-2-methylthiazolo[3,2-b]isoquinolinium chloride] | 11 | 270 |
| c1ccc2c(c1)C1CC(c3ccn[nH]3)(c3ccn[nH]3)C2c2scc[n+]21 (stereo not drawn) [18(h), 11,11-di-(pyrazol-5-yl)-5,10-ethano-5,10-dihydrothiazolo[3,2-b]isoquinolinium chloride] | 21 | 480 |
| Oc1cccc2c1C1c3scc[n+]3C2CC1(c1ccoc1)c1ccoc1 (stereo not drawn) [206(f), 11,11-di(3-furyl)-9-hydroxy-5,10-ethano-5,10-dihydrothiazolo[3,2-b]isoquinolinium chloride] | 1.87 | 20.9 |
| CCOC1(OCC)C2c3ccccc3C([n+]3ccsc32)C1(C)C (stereo not drawn) [Example 1i, 11,11-diethoxy-12,12-dimethyl-5,10-ethano-5,10-dihydrothiazolo[3,2-b]isoquinolinium chloride 3/5 hydrate] | 6.1 | 173 |
